US6407108B1, “1,2,4-triazolo(4,3-b)pyrido(3,2-d)pyridazine derivatives and pharmaceutical compositions containing them” (Almirall Prodesfarma, S.A., priority 1997, dated 2002)

Legend:
[1] = target: cyclic nucleotide phosphodiesterase 4 from guinea-pig hearts; test: Inhibition of cyclic nucleotide phosphodiesterase 4 (96-well microtiter plates, Verghese et al.); assay type: biochemical; details: PDE 4 from guinea-pig hearts; read-out: PDE4 IC50
Procedure: The inhibition of cyclic nucleotide phosphodiesterase 4 from guinea-pig hearts was performed using 96-well microtiter plates as described by Verghese et al., (Molecular Pharmacology, 47, 1164-1171 (1995)).

Row | Compound | melting point | IC50 [1]
1 | CCCCc1nnc2c3cccnc3c(-c3ccccc3)nn12 [Compound 6] | 162.9 °C | 2000 nM
2 | CC(C)Cc1nnc2c3cccnc3c(-c3ccccc3)nn12 [Compound 7] | 179.7 °C | 300 nM
3 | CC(C)(C)c1nnc2c3cccnc3c(-c3ccccc3)nn12 [Compound 8, 3-t-butyl-6-phenyl-1,2,4-triazolo[4,3-b]pyrido[3,2-d]pyridazine] | 188.1 °C | 
4 | c1ccc(-c2nn3c(C4CC4)nnc3c3cccnc23)cc1 [Compound 12, 3-cyclopropyl-6-phenyl-1,2,4-triazolo[4,3-b]pyrido[3,2-d]pyridazine] | 244.3 °C | 3000 nM
5 | CC(C)Cc1nnc2c3cccnc3c(-c3ccc(F)cc3)nn12 [Compound 31, 6-(4-fluorophenyl)-3-isobutyl-1,2,4-triazolo[4,3-b]pyrido[3,2-d]pyridazine] | 135 °C | 200 nM
6 | Fc1cccc(-c2nn3c(CC4CCCC4)nnc3c3cccnc23)c1 [Compound 47] | 145 °C | 700 nM
7 | CC(C)Cc1nnc2c3cccnc3c(-c3cccc(Cl)c3)nn12 [Compound 55] | 113 °C | 200 nM
8 | Clc1cccc(-c2nn3c(CC4CC4)nnc3c3cccnc23)c1 [Compound 60] | 136 °C | 100 nM
9 | Clc1cccc(-c2nn3c(CC4CCC4)nnc3c3cccnc23)c1 [Compound 61] | 156 °C | 2000 nM
10 | CC(C)Cc1nnc2c3cccnc3c(-c3cccc([N+](=O)[O-])c3)nn12 [Compound 109] | 178 °C | 40 nM
11 | O=[N+]([O-])c1cccc(-c2nn3c(CC4CC4)nnc3c3cccnc23)c1 [Compound 112, 3-cyclopropylmethyl-6-(3-nitrophenyl)-1,2,4-triazolo[4,3-b]pyrido[3,2-d]pyridazine] | 164 °C | 700 nM
12 | O=[N+]([O-])c1cccc(-c2nn3c(CC4CCC4)nnc3c3cccnc23)c1 [Compound 113, 3-cyclobutylmethyl-6-(3-nitrophenyl)-1,2,4-triazolo[4,3-b]pyrido[3,2-d]pyridazine] | 150 °C | 200 nM
13 | CC(C)Cc1nnc2c3ccccc3c(-c3ccccc3)nn12 [Compound A, 3-isobutyl-6-phenyl-1,2,4-triazolo[3,4-a]phthalazine, reference compound] |  | 10000 nM
